pIC50: −log10 of the molar value.
Tested on: K24384-001-R-PDC complex spheroids, viability
Assay: Anticancer human tumor K24384-001-R-PDC patient-derived pancreatic adenocarcinoma cell line growth inhibition [GQUAD]
Details: for pIC50: curve of first compound; for viability, T/C: stronger effect = lower value
How it was run: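 Viability of tumor cells grown as complex spheroids with endothelial and stromal cells, exposed to drug combinations. Top concentration at or near clinical Cmax (else 10 microM), diluted in half-log increments.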

[1] = second compound 0.0316 µM, first compound 0.0316 µM
[2] = second compound 0.0316 µM, first compound 0.1 µM
[3] = second compound 0.0316 µM, first compound 0.316 µM
[4] = second compound 0.0316 µM, first compound 1 µM
[5] = second compound 0.0316 µM, first compound 3.16 µM
[6] = second compound 0.0316 µM, first compound 10 µM
[7] = second compound 0.1 µM, first compound 0.0316 µM
[8] = second compound 0.1 µM, first compound 0.1 µM
[9] = second compound 0.1 µM, first compound 0.316 µM
[10] = second compound 0.1 µM, first compound 1 µM
[11] = second compound 0.1 µM, first compound 3.16 µM
[12] = second compound 0.1 µM, first compound 10 µM
[13] = second compound 0.316 µM, first compound 0.0316 µM
[14] = second compound 0.316 µM, first compound 0.1 µM
[15] = second compound 0.316 µM, first compound 0.316 µM
[16] = second compound 0.316 µM, first compound 1 µM
[17] = second compound 0.316 µM, first compound 3.16 µM
[18] = second compound 0.316 µM, first compound 10 µM
[19] = second compound 1 µM, first compound 0.0316 µM
[20] = second compound 1 µM, first compound 0.1 µM
[21] = second compound 1 µM, first compound 0.316 µM
[22] = second compound 1 µM, first compound 1 µM
[23] = second compound 1 µM, first compound 3.16 µM
[24] = second compound 1 µM, first compound 10 µM
[25] = second compound 3.16 µM, first compound 0.0316 µM
[26] = second compound 3.16 µM, first compound 0.1 µM
[27] = second compound 3.16 µM, first compound 0.316 µM
[28] = second compound 3.16 µM, first compound 1 µM
[29] = second compound 3.16 µM, first compound 3.16 µM
[30] = second compound 3.16 µM, first compound 10 µM
[31] = second compound 10 µM, first compound 0.0316 µM
[32] = second compound 10 µM, first compound 0.1 µM
[33] = second compound 10 µM, first compound 0.316 µM
[34] = second compound 10 µM, first compound 1 µM
[35] = second compound 10 µM, first compound 3.16 µM
[36] = second compound 10 µM, first compound 10 µM
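Further: spheroids exposed to compounds for seven days.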

## CCCS(=O)(=O)Nc1ccc(F)c(C(=O)c2c[nH]c3ncc(-c4ccc(Cl)cc4)cc23)c1F + Cc1[nH]c2ccc(F)cc2c1-c1nc2c3cccnc3c3ncccc3c2[nH]1
Second compound 0.0316 µM
  pIC50: 5.04
Second compound 0.1 µM
  pIC50: 5.06
Second compound 0.316 µM
  pIC50: 5.08
Second compound 1 µM
  pIC50: 5.11
Second compound 3.16 µM
  pIC50: 5.30
Second compound 10 µM
  pIC50: 5.22
[1]
  viability, T/C: 86.4%
[2]
  viability, T/C: 137%
[3]
  viability, T/C: 107%
[4]
  viability, T/C: 117%
[5]
  viability, T/C: 130%
[6]
  viability, T/C: 44.5%
[7]
  viability, T/C: 87.7%
[8]
  viability, T/C: 105%
[9]
  viability, T/C: 117%
[10]
  viability, T/C: 128%
[11]
  viability, T/C: 122%
[12]
  viability, T/C: 41%
[13]
  viability, T/C: 92.1%
[14]
  viability, T/C: 102%
[15]
  viability, T/C: 140%
[16]
  viability, T/C: 137%
[17]
  viability, T/C: 125%
[18]
  viability, T/C: 36.3%
[19]
  viability, T/C: 112%
[20]
  viability, T/C: 109%
[21]
  viability, T/C: 108%
[22]
  viability, T/C: 126%
[23]
  viability, T/C: 128%
[24]
  viability, T/C: 31%
[25]
  viability, T/C: 77%
[26]
  viability, T/C: 111%
[27]
  viability, T/C: 76.7%
[28]
  viability, T/C: 92.2%
[29]
  viability, T/C: 75.9%
[30]
  viability, T/C: 11.3%
[31]
  viability, T/C: 84.6%
[32]
  viability, T/C: 80.8%
[33]
  viability, T/C: 85.2%
[34]
  viability, T/C: 117%
[35]
  viability, T/C: 109%
[36]
  viability, T/C: 13.8%

## CCc1c2c(nc3ccc(O)cc13)-c1cc3c(c(=O)n1C2)COC(=O)[C@]3(O)CC + CN(C)c1ccc(Nc2c3ccc(NC(=O)CCN4CCCC4)cc3nc3cc(NC(=O)CCN4CCCC4)ccc23)cc1
Second compound 0.0316 µM
  pIC50: 8.13
Second compound 0.1 µM
  pIC50: 8.05
Second compound 0.316 µM
  pIC50: 8.25
Second compound 1 µM
  pIC50: 8.25
Second compound 3.16 µM
  pIC50: 8.46
Second compound 10 µM
  pIC50: 7.79
Second compound 0.0316 µM, first compound 0.000999 µM
  viability, T/C: 80.2%
Second compound 0.0316 µM, first compound 0.00316 µM
  viability, T/C: 78.2%
Second compound 0.0316 µM, first compound 0.00999 µM
  viability, T/C: 39.6%
[1]
  viability, T/C: 32.2%
Second compound 0.0316 µM, first compound 0.0999 µM
  viability, T/C: 35.4%
[3]
  viability, T/C: 30.3%
Second compound 0.1 µM, first compound 0.000999 µM
  viability, T/C: 69.6%
Second compound 0.1 µM, first compound 0.00316 µM
  viability, T/C: 62.7%
Second compound 0.1 µM, first compound 0.00999 µM
  viability, T/C: 49.7%
[7]
  viability, T/C: 34.2%
Second compound 0.1 µM, first compound 0.0999 µM
  viability, T/C: 36.1%
[9]
  viability, T/C: 32.3%
Second compound 0.316 µM, first compound 0.000999 µM
  viability, T/C: 73.2%
Second compound 0.316 µM, first compound 0.00316 µM
  viability, T/C: 65.2%
Second compound 0.316 µM, first compound 0.00999 µM
  viability, T/C: 35.2%
[13]
  viability, T/C: 42.8%
Second compound 0.316 µM, first compound 0.0999 µM
  viability, T/C: 33.6%
[15]
  viability, T/C: 26.3%
Second compound 1 µM, first compound 0.000999 µM
  viability, T/C: 69.8%
Second compound 1 µM, first compound 0.00316 µM
  viability, T/C: 58.2%
Second compound 1 µM, first compound 0.00999 µM
  viability, T/C: 39.9%
[19]
  viability, T/C: 39.9%
Second compound 1 µM, first compound 0.0999 µM
  viability, T/C: 28.6%
[21]
  viability, T/C: 28%
Second compound 3.16 µM, first compound 0.000999 µM
  viability, T/C: 82.3%
Second compound 3.16 µM, first compound 0.00316 µM
  viability, T/C: 51.2%
Second compound 3.16 µM, first compound 0.00999 µM
  viability, T/C: 37%
[25]
  viability, T/C: 37.5%
Second compound 3.16 µM, first compound 0.0999 µM
  viability, T/C: 34%
[27]
  viability, T/C: 30.9%
Second compound 10 µM, first compound 0.000999 µM
  viability, T/C: 70.7%
Second compound 10 µM, first compound 0.00316 µM
  viability, T/C: 61.2%
Second compound 10 µM, first compound 0.00999 µM
  viability, T/C: 59.4%
[31]
  viability, T/C: 37.3%
Second compound 10 µM, first compound 0.0999 µM
  viability, T/C: 36.6%
[33]
  viability, T/C: 32.8%

## CC(=O)O[C@H]1C(=O)[C@@]2(C)[C@H]([C@H](OC(=O)c3ccccc3)[C@]3(O)C[C@H](OC(=O)[C@H](O)[C@@H](NC(=O)c4ccccc4)c4ccccc4)C(C)=C1C3(C)C)[C@]1(OC(C)=O)CO[C@@H]1C[C@@H]2O + Cc1[nH]c2ccc(F)cc2c1-c1nc2c3cccnc3c3ncccc3c2[nH]1
Second compound 0.0316 µM
  pIC50: > 7.50
Second compound 0.1 µM
  pIC50: > 7.50
Second compound 0.316 µM
  pIC50: > 7.50
Second compound 1 µM
  pIC50: > 7.50
Second compound 3.16 µM
  pIC50: > 7.50
Second compound 10 µM
  pIC50: > 7.50
[1]
  viability, T/C: 31.8%
[2]
  viability, T/C: 25%
[3]
  viability, T/C: 21.2%
[4]
  viability, T/C: 16.8%
[5]
  viability, T/C: 24.9%
[6]
  viability, T/C: 28.7%
[7]
  viability, T/C: 42.4%
[8]
  viability, T/C: 23.7%
[9]
  viability, T/C: 19.6%
[10]
  viability, T/C: 18.7%
[11]
  viability, T/C: 22.7%
[12]
  viability, T/C: 27.1%
[13]
  viability, T/C: 40%
[14]
  viability, T/C: 28.3%
[15]
  viability, T/C: 18.6%
[16]
  viability, T/C: 22.3%
[17]
  viability, T/C: 24.5%
[18]
  viability, T/C: 29.1%
[19]
  viability, T/C: 38.1%
[20]
  viability, T/C: 28.2%
[21]
  viability, T/C: 18.5%
[22]
  viability, T/C: 26.1%
[23]
  viability, T/C: 31.6%
[24]
  viability, T/C: 31.4%
[25]
  viability, T/C: 34.6%
[26]
  viability, T/C: 18.9%
[27]
  viability, T/C: 18.5%
[28]
  viability, T/C: 16.7%
[29]
  viability, T/C: 22.9%
[30]
  viability, T/C: 18.1%
[31]
  viability, T/C: 27.6%
[32]
  viability, T/C: 23.2%
[33]
  viability, T/C: 24.1%
[34]
  viability, T/C: 15.4%
[35]
  viability, T/C: 22.2%
[36]
  viability, T/C: 23.1%
